The text below walks through data of ChEMBL document CHEMBL1134349, “AMP deaminase inhibitors. 5. Design, synthesis, and SAR of a highly potent inhibitor series” (J Med Chem, 2001).

One assay deals with T1, Adenosine deaminase (Bos taurus, UniProt P56658).
T1 sequence (P56658 whole entry): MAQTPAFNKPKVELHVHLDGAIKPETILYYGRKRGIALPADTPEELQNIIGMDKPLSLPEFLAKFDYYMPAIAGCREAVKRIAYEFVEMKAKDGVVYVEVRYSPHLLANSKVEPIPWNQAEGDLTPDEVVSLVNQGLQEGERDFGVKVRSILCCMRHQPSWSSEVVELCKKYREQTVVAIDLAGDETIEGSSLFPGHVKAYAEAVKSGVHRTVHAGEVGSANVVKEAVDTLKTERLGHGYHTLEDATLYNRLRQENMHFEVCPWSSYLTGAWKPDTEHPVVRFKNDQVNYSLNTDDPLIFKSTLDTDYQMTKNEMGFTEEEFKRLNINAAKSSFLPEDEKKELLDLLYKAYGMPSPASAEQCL
Put plainly: Inhibition of Calf intestinal adenosine deaminase (ADA).

Another assay deals with T2, AMP deaminase 3 (Homo sapiens, UniProt Q01432).
T2 sequence (Q01432 whole entry): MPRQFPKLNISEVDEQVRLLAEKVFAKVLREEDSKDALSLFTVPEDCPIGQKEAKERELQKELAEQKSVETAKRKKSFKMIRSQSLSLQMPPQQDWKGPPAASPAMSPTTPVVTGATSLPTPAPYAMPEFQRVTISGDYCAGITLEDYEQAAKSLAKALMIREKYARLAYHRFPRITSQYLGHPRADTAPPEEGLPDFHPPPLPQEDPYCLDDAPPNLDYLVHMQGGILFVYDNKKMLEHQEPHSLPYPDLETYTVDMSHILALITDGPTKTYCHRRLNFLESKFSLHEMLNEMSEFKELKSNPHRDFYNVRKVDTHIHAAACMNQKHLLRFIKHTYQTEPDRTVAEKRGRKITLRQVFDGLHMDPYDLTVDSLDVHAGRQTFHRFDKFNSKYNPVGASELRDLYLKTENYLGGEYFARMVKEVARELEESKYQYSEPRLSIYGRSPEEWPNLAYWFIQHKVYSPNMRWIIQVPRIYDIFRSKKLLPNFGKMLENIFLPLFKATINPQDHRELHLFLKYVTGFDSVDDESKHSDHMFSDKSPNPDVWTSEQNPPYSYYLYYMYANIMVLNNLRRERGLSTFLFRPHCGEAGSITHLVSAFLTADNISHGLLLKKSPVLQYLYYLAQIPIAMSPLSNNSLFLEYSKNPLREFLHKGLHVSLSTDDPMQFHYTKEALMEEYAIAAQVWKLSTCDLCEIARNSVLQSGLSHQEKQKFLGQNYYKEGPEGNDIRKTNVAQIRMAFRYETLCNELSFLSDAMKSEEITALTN
Put plainly: Inhibition of recombinant human E-type adenylate deaminase.

For orientation: Ki means the equilibrium dissociation constant of an inhibitor or competing ligand from its target.

Regarding `COc1c(C(=O)O)cc2c(c1CCn1cnc3c1NC=NCC3O)CCCC2` (configuration not stated), the values for the Ki at Adenosine deaminase and at AMP deaminase 3 were over 7.5 µM and 0.04 µM, respectively.

As to `CCOC(=O)c1cc(CCn2cnc3c2N=CNCC3O)c2cc(Br)ccc2c1` (configuration not stated), the Ki at Adenosine deaminase was determined as 4.4 µM; on AMP deaminase 3 it was 14 µM.

Take `O=C(O)c1cc(CCn2cnc3c2NC=NCC3O)c2ccccc2c1` (configuration not stated): the values for the Ki at Adenosine deaminase and at AMP deaminase 3 were over 1000 µM and 0.02 µM, respectively.

With `CCOC(=O)c1cc(CCn2cnc3c2N=CNCC3O)c2cccc(C(F)(F)F)c2c1` (configuration not stated), the results for the Ki at Adenosine deaminase and at AMP deaminase 3 were 2.7 µM and 35 µM, respectively.

For the molecule `O=C(O)c1cc(CCn2cnc3c2N=CNCC3O)c2cccc(C(F)(F)F)c2c1` (configuration not stated), the figures for the Ki on Adenosine deaminase and at AMP deaminase 3 were over 7.5 µM and 0.22 µM, respectively.

On to `CC(C)Oc1c(C(=O)O)cc(CCn2cnc3c2N=CNCC3O)c2c1CCCC2` (configuration not stated), for which the Ki was over 7.5 µM at Adenosine deaminase and 0.09 µM at AMP deaminase 3.

`CCOC(=O)c1cc2c(c(CCn3cnc4c3N=CNCC4O)c1OC)CCCC2` (configuration not stated): the Ki on Adenosine deaminase is over 7.5 µM; at AMP deaminase 3, 2.4 µM.

With `O=C(O)c1cc(CCn2cnc3c2N=CNCC3O)c2cc(Br)ccc2c1` (configuration not stated), the values for the Ki at Adenosine deaminase and on AMP deaminase 3 were over 7.5 µM and 0.96 µM, respectively.

Consider `CCOC(=O)c1cc(CCn2cnc3c2NC=NCC3O)c2c(c1OC(C)C)CCCC2` (configuration not stated), for which the Ki at Adenosine deaminase was over 7.5 µM; at AMP deaminase 3, 3.8 µM.

In the case of `CCOC(=O)c1c(Cl)c2c(c(CCn3cnc4c3NC=NCC4O)c1Cl)CCCC2` (configuration not stated), the Ki on Adenosine deaminase is over 7.5 µM; at AMP deaminase 3 it was 0.5 µM.

Take `O=C(OCc1ccccc1)c1c(Cl)c2c(c(CCn3cnc4c3NC=NCC4O)c1Cl)CCCC2` (configuration not stated): the Ki at Adenosine deaminase was over 7.5 µM; on AMP deaminase 3 it was 0.3 µM.

`CCOC(=O)c1cc(CCn2cnc3c2NC=NCC3O)c2c(c1Br)CCCC2` (configuration not stated): the Ki turned out to be 0.53 µM on Adenosine deaminase and 1 µM at AMP deaminase 3.

`CCOC(=O)c1cc(CCn2cnc3c2NC=NCC3O)c2c(c1OC)CCCC2` (configuration not stated): the Ki at Adenosine deaminase was determined as 3.7 µM; on AMP deaminase 3, 2.3 µM.

For `O=C(O)c1cc2c(c(CCn3cnc4c3NC=NCC4O)c1)CCCC2` (configuration not stated), the Ki at Adenosine deaminase is over 7.5 µM; at AMP deaminase 3 it was 0.015 µM.

For `O=C(O)C(CCCCn1cnc2c1NC=NCC2O)Cc1ccccc1` (configuration not stated), the Ki on AMP deaminase 3 was found to be 0.41 µM.

`CCOC(=O)c1cc(CCn2cnc3c2NC=NCC3O)c2c(c1OCc1ccccc1)CCCC2` (configuration not stated): the results for the Ki at Adenosine deaminase and on AMP deaminase 3 were over 7.5 µM and 0.3 µM, respectively.

In the case of `COC(=O)c1cc(CCn2cnc3c2NC=NCC3O)c2ccccc2c1` (configuration not stated), the Ki is over 7.5 µM at Adenosine deaminase and 1.8 µM on AMP deaminase 3.

With `OC[C@H]1O[C@@H](n2cnc3c2N=CNC[C@H]3O)[C@H](O)[C@@H]1O` [COFORMYCIN], the Ki at AMP deaminase 3 amounted to 3 µM.

For `O=C(OCc1ccccc1)c1cc2c(c(CCn3cnc4c3N=CNCC4O)c1)CCCC2` (configuration not stated), the Ki worked out at 0.72 µM at Adenosine deaminase and 5 µM at AMP deaminase 3.

In the case of `O=C(O)c1cc(CCn2cnc3c2N=CNCC3O)c2c(c1OCc1ccccc1)CCCC2` (configuration not stated), the results for the Ki at Adenosine deaminase and at AMP deaminase 3 were over 7.5 µM and 0.009 µM, respectively.

Turning to `O=C(O)c1cccc(CCn2cnc3c2N=CNCC3O)c1` (configuration not stated), the Ki at AMP deaminase 3 worked out at 0.5 µM.

Regarding `COc1c(C(=O)O)cc(CCn2cnc3c2NC=NCC3O)c2c1CCCC2` (configuration not stated), the Ki on Adenosine deaminase is over 7.5 µM; at AMP deaminase 3, 0.03 µM.

`O=C(O)c1c(Cl)c2c(c(CCn3cnc4c3N=CNCC4O)c1Cl)CCCC2` (configuration not stated): the Ki on Adenosine deaminase was over 7.5 µM; at AMP deaminase 3 it was 0.05 µM.

For `CCOC(=O)c1cc2c(c(CCn3cnc4c3N=CNCC4O)c1)CCCC2` (configuration not stated), the results for the Ki at Adenosine deaminase and at AMP deaminase 3 were 3.4 µM and 1.3 µM, respectively.

On to `O=C(O)c1cc(CCn2cnc3c2N=CNCC3O)c2c(c1Br)CCCC2` (configuration not stated), for which the Ki on Adenosine deaminase is over 7.5 µM; on AMP deaminase 3, 0.002 µM.
